Assay results reported in patent US10174015B2, “Substituted heterocyclic derivative, preparation method and use thereof” (Xiamen University, priority 2014, dated 2019).
Where two headings read alike, the source gives them in different places.

Columns and labels:
[1] = tested on: inflammatory pain induced by carrageenan and neuropathic pain caused by sciatic nerve ligation; details: cited from earlier work
[2] = tested on: NAAA; details: NAAA inhibitor, literature value; cited from earlier work
[3] = Stability assays at acidic and basic conditions; format: physicochemical
Protocol: The sample containing the compound to be tested was then incubated in a constant temperature shaker at 37° C. At different time points (0 min, 10 min, 30 min, 1 h, 2 h, 4 h, 6 h, 12 h, 24 h), 50 μL sample was taken and added to 150 μL precooled methanol (containing the internal standard E8, 1 nmol/sample), wherein three parallel samples were prepared for each time point. The samples were then vertically mixed well, and transferred to a sample vial. LC-MS/MS was used to measure the peak area at different time points, Analyst® version 1.4.1. software was used to analyze chromatographic peak, and the content of the target compound was calculated based on the standard curve.

[4] = Assay on drug metabolism in rat; format: in vivo, SD rats; details: SD, plasma, iv, 30 mg/Kg via jugular vein
Description: 50 SD rats (purchased from Shanghai SLAC Laboratory Animal Co., Ltd) were divided into 5 groups randomly, 10 rats per group. After anesthesia with ether, rat was fixed on the operating table on its back, and was shaved at the operative site of neck. After disinfection with 75% alcohol, the neck was cut about 1.5 cm longitudinally, muscle tissues and nervi vascularis surrounding trachea were separated by blunt dissection, and carotid artery was separated by blunt dissection. Ligation was performed at distal end, an artery clamp was used at proximal part, and the distance between them was about 1 cm. A small cut was made with a pair of ophthalmic scissors at proximal part close to the ligated site, and arterial duct was introduced from the small cut to the proximal part, the artery clamp was loosened, the arterial ostium was clamped with smooth forceps, whilst the arterial duct was delivered to heart ventricle. Upon the introduction of the arterial duct into heart ventricle, the blood vessel was ligated. By using the same intubation method for artery, intubation was applied to jugular veins. After intubation, a tubule filled with heparin sodium was drawn out from artery and vein, which passed through the skin under the ear of the rat and drawn out from the dorsal part skin of the neck of the rat, and the tubule was fixed well. The muscles and skin were sutured at the surgical site of the rat, and normal saline containing heparin sodium was injected from time to time via the tubule connecting the artery and the vein to prevent tubule obstruction due to blood coagulation. The rat was placed in a warm and clean cage provided with water and food, waiting for the rat to wake up naturally.
After the rat regained consciousness and acted normally, assay on metabolic stability of compounds was performed in the rat. All the agents to be injected (including compounds to be tested and control drug) were dissolved in a mixed solvent of PEG400:Tween 80:normal saline (at a volume ratio of 5:5:90), at a concentration of 5 mg/mL. The agent was injected slowly at a dose of 30 mg/Kg via the tubule drawn out from the jugular vein. After administration, the time was recorded, and blood was collected from the tubule drawn out from carotid artery at 2, 5, 10, 20, 30, 60, 240, 360, and 720 min, in an amount of 200 μL for each time. The whole blood was placed in commercially available heparin sodium blood-collecting tube (Jiangxi Jingzhi Medical Equipment Co., Ltd.), centrifuged at 1800 g for 15 min. To the supernatant plasma, 150 μL pre-cooled methanol stopping buffer (containing internal standard E8, 1 nmol/sample) was added, vertically mixed well, and then centrifuged at 4° C., 12000 g for 10 min. The supernatant was transferred to a sample vial, the target compound was detected by LC-MS/MS, and the content of the compound was calculated by virtue of standard curve.

[5] = Stability assay in rat plasma; format: in vitro ADME; details: 37° C.
Protocol: To each of several tubes sub-packaged with rat plasma, PBS solution was added in a volume equal to a quarter of plasma volume, and the resultant mixture was mixed well. […] At different time points (0, 10, 30, 60, 120, 240, 360, 720, 1440 min), 50 μL plasma sample was taken and added to 150 μL precooled methanol (containing the internal standard compound E8, with a structure of
[drawing 117] and a name of 1-(2-Biphenyl-4-yl)ethyl-carbonyl pyrrolidine, 1 nmol/sample), wherein three parallel samples were prepared for each time point. The samples were then vertically mixed well, and centrifuged at 4° C., 12000 g for 10 min. The supernatant was transferred to a sample vial. LC-MS/MS was used to measure the peak area at different time points, Analyst® version 1.4.1. software was used to analyze chromatographic peak, and the content of the target compound was calculated by virtue of the standard curve.

[6] = tested on: inflammatory abdominal pain caused by acetic acid; assay: Abdominal inflammatory pain caused by acetic acid; format: in vivo, Kunming mice; details: mice, 10 mg/kg i.p. 1 h before acetic acid; indometacin 20 mg/kg (FIG. 4)
Protocol: (§1) In the Experimental example, compounds to be evaluated or compounds to be tested or test compounds used are the Compounds 1-46 prepared in the Examples according to the invention. In the Experimental example, all the agents for injection, including compounds to be evaluated or compounds to be tested or test compounds, and positive control drug, were dissolved in a mixed solvent of PEG400:Tween 80:normal saline (at a volume ratio of 5:5:90), at a concentration of 5 mg/mL.
Typical model for studying inflammation-induced visceral pain medically was used to evaluate the therapeutic effects of compounds on inflammatory visceral pain. The model can represent general visceral pain including, but not only limited to appendicitis, gastritis, pancreatitis, prostatitis, myocarditis, interstitial cystitis, pain caused by hepatic, gall or kidney stone, irritable bowel syndrome, and chronic pelvic pain syndrome.
Experimental Kunming mice (purchased by Xiamen University Laboratory Animal Center from Shanghai SLAC Laboratory Animal Co., Ltd) were in an experimental environment with free access to food and water for 1 week. The mice were fasted for 24 h before administration. The compound to be evaluated (10 mg/kg) was administered to the mice by intraperitoneal injection at 1 h before administration of acetic acid, wherein the positive control drug indometacin was administered at a dose of 20 mg/kg, and the blank control was normal saline. Acetic acid (50 μL, acetic acid dissolved in normal saline, at a concentration of 5%) was administered to the mice by intraperitoneal injection, and the mice were then placed in the observation cage. A video camera was used to record the behavior of the mice in the following 20 min. Pain-related behavior was analyzed statistically based on torsion times of the mice in said period.

[7] = tested on: headache caused by nitroglycerin; assay: Nitroglycerin-induced headache rat model; format: in vivo, Wistar rats; details: rats, 10 mg/kg i.p. 1 h before nitroglycerin (FIG. 5)
Protocol: as §1
Nitroglycerin-induced headache rat model was a common model for studying inflammatory pain medically. The model was used in the invention to evaluate the therapeutic effects of the compounds on headache. The model can represent mixed pain including, but not only limited to: migraine, cluster headache, tension headache syndrome, prosopodynia, lumbodynia, shoulder pain, burning mouth syndrome, and complex regional pain syndrome.
Experimental Wistar rats with a body weight of about 250 g for each (purchased from Shanghai SLAC Laboratory Animal Co., Ltd) were in an experimental environment with free access to food and water for 1 week. The rats were fasted for 24 h before administration. The compound to be evaluated (10 mg/kg) was intraperitoneally injected to the rat at 1 h before the administration of nitroglycerin, wherein the positive control drug was indomethacin and the blank control was normal saline. Nitroglycerin (10 mg/kg, nitroglycerin dissolved in normal saline, at a concentration of 5%) was injected at epidermis of the rat neck, and the rats were then placed in the observation cage. A video camera was used to record the behavior of the rats in the following 60 min. Pain-related behavior was analyzed statistically based on the times that the rat scratched its head in said period.

[8] = tested on: SNI neuropathic pain; assay: Neuropathic pain mouse model induced by spared nerve injury (SNI); format: in vivo, C57BL/6 mice; details: SNI mice, 10 mg/kg intraperitoneal, 1 h and 4 h after administration (FIGS. 1 and 2)
Protocol: as §1
Neuropathic pain mouse model induced by spared nerve injury (SNI) is a common animal model for studying neuropathic pain medically. The invention uses the model to evaluate the therapeutic effects of the compounds on neuropathic pain, wherein the model can represent peripheral neuropathic pain including, but not limited to post-herpetic neuralgia, pain caused by diabetic perineuropathy, neurothlipsis and exudation caused by tumor, lumbar surgery failure syndrome, neuropathic pain caused by lumbar disc protrusion, postpartum neuralgia, trigeminal neuralgia, chemotherapy-induced multiple neuropathic pain, post-radiotherapy plexopathy, and radicular neuralgia.
C57BL/6 mice (purchased from Shanghai SLAC Laboratory Animal Co., Ltd) were anesthetized by intraperitoneal injection with pentobarbital sodium (40 mg/kg), and skin from knee joint to gluteal region was subjected to skin preparation and disinfection. After the mice were fixed, the knee joint part was cut about 1 cm longitudinally with bistoury, and muscle tissues were separated by blunt dissection to expose sciatic nerve. The tibial and common peroneal nerve branches of sciatic nerve stem were cut off carefully, and the cut was then stitched up. The mice was placed in a clean observation cage. In the sham-operation group, only sciatic nerve was exposed without cutting the tibial and common peroneal nerve branches. From the day before the experiment to 24 h after the operation, the plantar edges of the mice were stimulated everyday by […] (Ugo Basile Company (Italy), Product ID: 37450), and data was collected automatically to obtain the threshold value of mice to mechanical stimulation. […] The positive control drug gabapentin was administered at a dose of 100 mg/kg. All the agents to be injected were dissolved in a mixed solvent of PEG400:Tween 80:normal saline (at a volume ratio of 5:5:90), at a concentration of 5 mg/mL. By comparing the threshold values (the acting force of when the mouse retracting the paw) at different administration time in different administration groups, the compound was evaluated for its analgesic effect on neuropathic pain.

[9] = target: N-acylethanolamide hydrolyzing acid amidase (NAAA) (Rattus norvegicus, UniProt Q5KTC7); assay: Endocannabinoid hydrolase activity: NAAA inhibition (17:1 FAE hydrolysis, LC-MS); format: biochemical
Chain of N-acylethanolamide hydrolyzing acid amidase (NAAA) (Q5KTC7 34-130 limits assumed): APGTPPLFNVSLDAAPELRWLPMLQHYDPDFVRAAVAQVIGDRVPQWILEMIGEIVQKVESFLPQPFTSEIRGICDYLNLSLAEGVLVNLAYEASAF
Chain of N-acylethanolamide hydrolyzing acid amidase (NAAA) (Q5KTC7 131-362 limits assumed): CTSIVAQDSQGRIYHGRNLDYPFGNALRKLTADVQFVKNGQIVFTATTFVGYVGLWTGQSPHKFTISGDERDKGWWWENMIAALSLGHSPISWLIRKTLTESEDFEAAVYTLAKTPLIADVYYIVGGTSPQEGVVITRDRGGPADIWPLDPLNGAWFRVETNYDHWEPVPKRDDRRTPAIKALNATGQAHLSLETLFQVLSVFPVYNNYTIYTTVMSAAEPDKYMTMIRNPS
Protocol: The preparation method was as followed: a plasmid (pCDNA3.1/NAAA or pCDNA3.1/FAAH) carrying a whole NAAA/FAAH gene was constructed, wherein the plasmid carried Cytomegalovirus (CMV) promoter and Neomycin selectable gene; the plasmid was transformed into HEK-293 cell via lipid medium, stable cell lines expressing NAAA/FAAH at a high level were obtained by G418 screening and Western-blot method. HEK-293 recombinant cells were cultured and collected, washed with PBS for 2-3 times, and ultrasonically treated in 20 mM Tris-HCl containing 0.32 M sucrose, then repeatedly frozen and thawed twice, and then centrifuged at 4° C., 800 g for 15 min. The supernatant (i.e., the desired protein) was collected, the protein concentration was determined by BCA method, and the protein was diluted to a concentration of 1 mg/mL, and sub-packaged and stored in a refrigerator at −80° C. for further use.
The reaction was carried out at 37° C. for 10 min. 170 μL buffer (the buffer consisted of 50 mM disodium Hydrogen Phosphate, 0.1% Triton X-100, 3 mM DTT, 150 μL) containing enzymatic hydrolysis substrate (the substrate was a heptadecenoyl ethanolamine containing a double bond and 17 carbon atoms, abbreviated as 17:1 FAE) was further added, wherein the concentration of 17:1 FAE was 5 μM. The reaction was carried out at 37° C. for 30 min, and 200 μL methanol solution containing internal standard (the internal standard was margaric acid, at a concentration of 1 nmol) was then added to stop the reaction. LC-MS was used to determine the yield of the hydrolysate 17:1 FA (i.e., a heptadecenoic acid containing a double bond) of 17:1 FAE, then a graph was plotted with Graphpad Prism 5. Thereby, the IC50 of the test compound on endocannabinoid hydrolase was determined.

[10] = target: hERG potassium channel (Homo sapiens (Human), UniProt Q12809); assay: hERG potassium channel automated patch clamp in CHO-hERG cells
Chain of hERG potassium channel (Q12809 whole entry): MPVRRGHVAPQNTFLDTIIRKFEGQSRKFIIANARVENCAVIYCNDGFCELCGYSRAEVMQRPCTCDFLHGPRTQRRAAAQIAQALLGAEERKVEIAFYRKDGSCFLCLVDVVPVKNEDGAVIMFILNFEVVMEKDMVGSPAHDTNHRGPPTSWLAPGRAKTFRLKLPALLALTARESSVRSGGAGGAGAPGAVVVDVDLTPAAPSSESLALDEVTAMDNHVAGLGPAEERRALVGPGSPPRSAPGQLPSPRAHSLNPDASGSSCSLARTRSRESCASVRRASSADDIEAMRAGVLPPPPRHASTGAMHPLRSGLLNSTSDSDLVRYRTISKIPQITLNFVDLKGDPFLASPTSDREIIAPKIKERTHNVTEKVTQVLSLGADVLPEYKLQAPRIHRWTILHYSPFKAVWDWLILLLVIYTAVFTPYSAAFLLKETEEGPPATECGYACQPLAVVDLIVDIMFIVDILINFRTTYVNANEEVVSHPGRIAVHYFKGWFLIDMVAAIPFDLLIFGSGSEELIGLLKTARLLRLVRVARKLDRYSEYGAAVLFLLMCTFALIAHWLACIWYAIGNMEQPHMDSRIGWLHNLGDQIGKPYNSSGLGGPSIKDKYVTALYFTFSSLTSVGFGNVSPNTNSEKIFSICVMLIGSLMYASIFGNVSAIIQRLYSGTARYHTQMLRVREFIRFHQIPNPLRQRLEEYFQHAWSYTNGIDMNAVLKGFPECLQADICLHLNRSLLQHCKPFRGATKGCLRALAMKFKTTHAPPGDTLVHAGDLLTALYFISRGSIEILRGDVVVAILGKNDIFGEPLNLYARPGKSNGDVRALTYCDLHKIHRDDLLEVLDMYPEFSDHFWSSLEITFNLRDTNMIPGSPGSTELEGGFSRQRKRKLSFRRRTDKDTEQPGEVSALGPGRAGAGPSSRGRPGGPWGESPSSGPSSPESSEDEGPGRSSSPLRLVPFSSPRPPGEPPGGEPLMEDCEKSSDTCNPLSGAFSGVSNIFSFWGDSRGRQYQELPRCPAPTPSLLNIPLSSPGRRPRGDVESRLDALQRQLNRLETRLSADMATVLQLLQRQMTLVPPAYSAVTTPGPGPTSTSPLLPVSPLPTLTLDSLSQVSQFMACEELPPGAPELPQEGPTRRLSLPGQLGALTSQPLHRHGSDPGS
Protocol: CHO-hERG cells (purchased from ATCC) were incubated in a culture flask. When the cell density reached 60˜80%, the culture medium (Glutamax DMEM/F12 medium (Gibco, Shanghai) containing 10% fetal bovine serum) was removed. The cells were washed with 7 mL PBS once, and then digested by adding 3 mL Detachin cell dissociation buffer. After complete digestion, the resultant mixture was neutralized by adding 7 mL culture medium, and centrifuged. The supernatant was removed with a pipette, 5 mL culture medium was added to re-suspend the cells to ensure a cell density of 2˜5×10^6/mL.
Intracellular fluid and extracellular fluid were prepared as described in the following table.
A certain amount of compound was dissolved in […] at the following concentrations, to prepare the stock solution of compound. 2 μL stock solution of compound was added to 998 μL extracellular fluid, and was subjected to 5-fold serial dilution in extracellular fluid containing 0.2% DMSO to get the final concentrates to be tested.
Single cell giga-seal and formation of whole-cell mode were automatically performed by Sophion Qpatch HT fully automated cell patch clamp systems. After obtaining the whole-cell recording mode, the cell was clamped at −80 mV. The cell first underwent pre-voltage of −50 mV for 50 msec, then underwent depolarization stimulation at 20 mV for 5 sec, and then underwent repolarization at −50 mV for 5 sec, and then the voltage return to −80 mv. The cell underwent the stimulation at the voltage every 15 sec, and the data were recorded for 2 min, then extracellular fluid was administered, and then the data were recorded for 2 min. Then, the administration process begun. The concentration of a test compound started from the lowest concentration, each test concentration was administered for 2 min. […] At least three cells were tested for each concentration (n≥3). The experimental data was analyzed by XLFit software.

[11] = PBS pH 5.0, 37° C., read-out: Half-life pH 5.0
[12] = PBS pH 7.4, 37° C., read-out: Half-life pH 7.4

SMILES | half-life at 1 μM [3, 11] [h] | half-life at 1 μM [3, 12] [h] | half-life [4] [h] | half-life at 2 μM [5] [h] | IC50 [9] [µM] | other results
C[C@@H]1OC(=O)[C@@H]1NC(=O)OCCCCCc1ccccc1 [ARN077] |  |  |  |  |  | analgesic effects on allodynia compared with gabapentin ([1]; sciatic nerve ligation, ARN077 1%, 20 μL, epidermal, gabapentin 50 mg/kg oral): better analgesic effects on allodynia than the positive control agent gabapentin; effect on inflammatory and neuropathic pain ([1]; topical administration): significantly inhibit inflammatory pain induced by carrageenan and neuropathic pain caused by sciatic nerve ligation; IC50 [2]: 0.127 µM
O=C(CCCCCc1cccc(F)c1)N1CCOC1=O [Compound 8, 3-Fluorophenylhexanoyl Oxazolidinone] | > 24 | > 24 | 1.55 | 2.75 |  | 
O=C1OCCN1C(=O)C1CCC(Cc2ccccc2)CC1 (centres unmarked) [Compound 24, 4-Benzylcyclohexanoyl Oxazolidinone] |  |  |  |  |  | effect of inhibiting abdominal inflammatory pain [6]: did not exhibit any effect of inhibiting abdominal inflammatory pain; effect of inhibiting nitroglycerin-induced headache [7]: did not exhibit any effect of inhibiting headache in rats; effect of inhibiting central neuropathic pain [8]: did not exhibit any effect of inhibiting central neuropathic pain
N[C@H]1CC(=O)N(C(=O)CCCCCc2ccccc2)C1 [Compound 30] |  |  |  |  |  | effect of inhibiting abdominal inflammatory pain [6]: did not exhibit any effect of inhibiting abdominal inflammatory pain; effect of inhibiting nitroglycerin-induced headache [7]: did not exhibit any effect of inhibiting headache in rats; effect of inhibiting central neuropathic pain [8]: did not exhibit any effect of inhibiting central neuropathic pain
O=C(CCCCCC1CCCNC1)N1CCOC1=O (centres unmarked) [Compound 34, Piperidin-3-yl-hexanoyl Oxazolidinone] |  |  |  |  |  | IC50 [10]: > 40 µM

Now from value to compound, other results behind:

half-life at 1 μM [3, 11] [h] | half-life at 1 μM [3, 12] [h] | half-life [4] [h] | half-life at 2 μM [5] [h] | IC50 [9] [µM] | SMILES | other results
> 24 | > 24 | 3.07 | 4.45 |  | CC(=O)C[C@@H]1COC(=O)N1C(=O)CCCCCc1cccc(C)c1 [Compound 11] | 
> 24 | > 24 | 1.23 | 2.2 |  | O=C(CCCCCc1ccc(O)cc1)N1CCOC1=O [Compound 31, 4-Hydroxyphenylhexanoyl Oxazolidinone] | 
 |  |  |  | 0.35 | Cc1cccc(CCCCCC(=O)N2CCOC2=O)c1 [Compound 32, 3-Methylphenylhexanoyl Oxazolidinone] | 
 |  |  |  | 0.44 | Cc1ccc(CCCCCC(=O)N2CCOC2=O)cc1 [Compound 33, 4-Methylphenylhexanoyl Oxazolidinone] | 
> 24 | > 24 | 2.92 | 5.33 | 0.68 | O=C1OCCN1C(=O)c1ccc(Oc2ccccc2)cc1 [Compound 41, 4-Phenoxybenzoyl Oxazolidinone] | 
